Data from patent US20190119282A1, “IMIDAZOPYRIDAZINES USEFUL AS INHIBITORS OF THE PAR-2 SIGNALING PATHWAY” (Vertex Pharmaceuticals Incorporated, priority 2013, published 2019).

Assays:
[1] = target: T1, PAR2 (HT-29 cells, SLIGKV activation) (Homo sapiens, UniProt P55085); experiment: Ca FLIPR TETRA assay, ANTAGONIST mode, stimulation with 8 μM SLIGKV; format: cell-based; settings: HT-29 cells
T1 construct: host or cells: HT-29 cells
T1 sequence (P55085 26-397): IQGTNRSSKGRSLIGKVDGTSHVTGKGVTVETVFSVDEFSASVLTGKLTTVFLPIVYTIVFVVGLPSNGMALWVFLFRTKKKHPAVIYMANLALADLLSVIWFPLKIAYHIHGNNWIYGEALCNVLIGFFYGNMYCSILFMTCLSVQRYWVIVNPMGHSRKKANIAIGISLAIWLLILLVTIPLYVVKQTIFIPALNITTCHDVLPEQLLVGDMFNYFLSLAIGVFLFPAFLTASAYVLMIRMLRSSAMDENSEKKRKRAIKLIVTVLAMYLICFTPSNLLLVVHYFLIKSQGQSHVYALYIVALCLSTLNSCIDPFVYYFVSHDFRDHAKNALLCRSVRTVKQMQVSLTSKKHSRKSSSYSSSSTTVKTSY
How it was run: (§1)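 Antagonist-mode assay: dye-loaded HT-29 cells, compound 30 min at r.t., then stimulated with final 8 μM SLIGKV, 3.1 U/mL trypsin, 1 U/mL thrombin or 0.6 μM UTP; calcium fluorescence read.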

[2] = target: T2, PAR2 (HT-29 cells, trypsin activation) (Homo sapiens, UniProt P55085); experiment: Ca FLIPR TETRA assay, ANTAGONIST mode, stimulation with 3.1 U/mL trypsin; format: cell-based; settings: HT-29 cells
T2 construct: host or cells: HT-29 cells
T2 sequence (P55085 26-397): T1 sequence (P55085 26-397)
How it was run: as §1

[3] = tested on: Thrombin-stimulated Ca2+ response in HT-29 cells; experiment: Ca FLIPR TETRA assay, ANTAGONIST mode, stimulation with 1 U/mL Thrombin; format: cell-based, human; settings: Homo sapiens, HT-29 cells
How it was run: as §1

[4] = tested on: UTP-stimulated Ca2+ response in HT-29 cells; experiment: Ca FLIPR TETRA assay, ANTAGONIST mode, stimulation with 0.6 μM UTP; format: cell-based, human; settings: Homo sapiens, HT-29 cells
How it was run: as §1

[5] = antagonist mode, stimulation with 8 μM SLIGKV
[6] = antagonist mode, stimulation with 3.1 U/mL trypsin
[7] = antagonist mode, stimulation with 1 U/mL Thrombin
[8] = antagonist mode, stimulation with 0.6 μM UTP
[9] = antagonist mode, 3.1 U/mL trypsin
[10] = antagonist mode, 1 U/mL Thrombin
[11] = stimulation with 3.1 U/mL trypsin
[12] = stimulation with 1 U/mL Thrombin

IC50 [1, 5] [nM]	IC50 [2, 6] [nM]	IC50 [3, 7] [nM]	IC50 [4, 8] [nM]	IC50 ([1]; stimulation with 8 μM SLIGKV) [nM]	IC50 [2, 11] [nM]	IC50 [3, 12] [nM]	IC50 ([4]; stimulation with 0.6 μM UTP) [nM]	SMILES	also measured
1.8	3.7	> 1000	> 1000	–	–	–	–	Cc1nnc(C(=O)N2CCN(C(=O)c3cn4nc(-c5ccc(F)c(Cl)c5)cc(C(C)(C)C)c4n3)C(C)(C)C2)o1 [Compound I-465]	–
0.6	0.7	> 1000	> 1000	–	–	–	–	Cc1cc(C(=O)N2CCN(C(=O)c3cn4nc(-c5ccc(F)c(C)c5)cc(C(C)(C)C)c4n3)C(C)(C)C2)[nH]n1 [Compound I-382]	–
0.6	0.6	> 1000	> 1000	–	–	–	–	Cc1ccc(-c2cc(C(C)(C)C)c3nc(C(=O)N4CCN(C(=O)c5nc(C)n[nH]5)CC4(C)C)cn3n2)cc1 [Compound I-397]	–
2.7	3.9	840	> 1000	–	–	–	–	CC(C)(C)c1cc(-c2ccc(F)cc2)nn2cc(C(=O)N3CCN(C(=O)c4ccncc4)CC3(C)C)nc12 [Compound I-286]	–
20.5	55.5	> 1000	> 1000	–	–	–	–	CC(C)c1cc(-c2ccc(F)cc2)nn2cc(C(=O)N3CCN(C(=O)c4ncccn4)CC3(C)C)nc12 [Compound I-323]	–
52.8	42	> 1000	> 1000	–	–	–	–	CC(C)c1cc(-c2ccc(F)cc2)nn2cc(C(=O)N3CCN(C(=O)c4cccnn4)CC3(C)C)nc12 [Compound I-307]	–
0.6	0.9	> 1000	> 1000	–	–	–	–	CC(C)(C)c1cc(-c2ccc(Cl)c(F)c2)nn2cc(C(=O)N3CCN(C(=O)c4ccccn4)CC3(C)C)nc12 [Compound I-455]	–
7.5	8.3	> 1000	> 1000	–	–	–	–	CC(C)c1cc(-c2ccc(C(F)F)cc2)nn2cc(C(=O)N3CCN(C(=O)c4cn[nH]c4)CC3(C)C)nc12 [Compound I-295]	–
23.5	53	> 1000	> 1000	–	–	–	–	CC(=O)N1CCN(C(=O)c2cn3nc(-c4ccc(F)cc4)cc(C(C)C)c3n2)C(C)(C)C1 [Compound I-512]	–
1.3	2.5	230	230	–	–	–	–	CC(C)(O)CN1CCN(C(=O)c2cn3nc(-c4ccc(F)cc4)cc(C(C)(C)C)c3n2)C(C)(C)C1=O [Compound I-225]	–
2.7	2.1	> 1000	> 1000	–	–	–	–	CC(C)(C)c1cc(-c2ccc(Br)cc2)nn2cc(C(=O)N3CCNC(=O)C3(C)C)nc12 [Compound I-517]	–
1.4	2.5	> 1000	> 1000	–	–	–	–	Cc1ccc(-c2cc(C(C)(C)C)c3nc(C(=O)N4CCN(C(=O)c5ncccn5)CC4(C)C)cn3n2)cc1 [Compound I-392]	–
27.7	26.5	> 1000	> 1000	–	–	–	–	CC(C)c1cc(-c2ccc(C(F)F)cc2)nn2cc(C(=O)N3CCNC(=O)C3(C)C)nc12 [Compound I-300]	–
12	23	> 1000	> 1000	–	–	–	–	CC(C)c1cc(-c2ccc(F)c(Cl)c2)nn2cc(C(=O)N3CCN(C(=O)[C@H]4C[C@H](O)C4)CC3(C)C)nc12 [Compound I-505]	–
0.7	2	> 1000	> 1000	–	–	–	–	Cc1cc(C(=O)N2CCN(C(=O)c3cn4nc(C5CCC(F)(F)CC5)cc(C(C)(C)C)c4n3)C(C)(C)C2)[nH]n1 [Compound I-437]	–
2.1	2.8	> 1000	> 1000	–	–	–	–	CC(C)c1cc(-c2ccc(C(F)(F)F)c(F)c2)nn2cc(C(=O)N3CCN(C(=O)c4ccncn4)CC3(C)C)nc12 [Compound I-278]	–

Further lines, the molecule ahead of its results:

SMILES	IC50 [1, 5] [nM]	IC50 [2, 6] [nM]	IC50 [3, 7] [nM]	IC50 [4, 8] [nM]	IC50 ([1]; stimulation with 8 μM SLIGKV) [nM]	IC50 [2, 11] [nM]	IC50 [3, 12] [nM]	IC50 ([4]; stimulation with 0.6 μM UTP) [nM]	also measured
CC(C)c1cc(-c2ccc(Cl)cc2)nn2cc(C(=O)N3CCN(C(=O)[C@H]4C[C@H](C(=O)O)C4)CC3(C)C)nc12 [Compound I-554]	–	–	–	–	–	–	–	–	IC50 ([1]; antagonist mode, 8 μM SLIGKV): 9.3 nM; IC50 [2, 9]: 11.2 nM; IC50 [3, 10]: > 1000 nM; IC50 ([4]; antagonist mode, 0.6 μM UTP): > 1000 nM
C[C@H]1CN(C(=O)c2cn3nc(-c4ccc(F)cc4)ccc3n2)CCN1C(=O)[C@H](O)CC(C)(C)C [Compound I-13, (2R)-1-[(2S)-4-[6-(4-Fluorophenyl)imidazo[1,2-b]pyridazine-2-carbonyl]-2-methyl-piperazin-1-yl]-2-hydroxy-4,4-dimethyl-pentan-1-one]	–	–	–	–	480	2400	13000	13000	–
Cc1cccc(-c2cc(C(C)C)c3nc(C(=O)N4CCN(C(=O)C(C)(C)O)CC4(C)C)cn3n2)c1 [Compound I-216]	108	190	> 1000	> 1000	–	–	–	–	–
Cc1cc(-c2ccc(F)cc2)nn2cc(C(=O)N3CCC(C#N)CC3)nc12 [Compound I-60]	–	–	–	–	7900	14000	32000	40000	–
CC(C)c1cc(-c2ccc(F)cc2)nn2cc(C(=O)N3CCN(C(=O)[C@H](O)CC(C)(C)C)CC3(C)C)nc12 [Compound I-103]	–	–	–	–	0.4	0.9	> 5000	> 5000	–
CCC(C)(O)CC(=O)N1CCN(C(=O)c2cn3nc(-c4ccc(F)cc4)cc(C(C)C)c3n2)C[C@@H]1C (stereo partly shown) [Compound I-146]	–	–	–	–	16	1000	20000	19000	–
CC(C)c1cc(-c2ccc(F)cc2)nn2cc(C(=O)N3CCN(C(=O)C4(N)CCC4)[C@@H](C)C3)nc12 [Compound I-155]	–	–	–	–	800	3500	27000	25000	–
CC(C)(O)C(=O)N1CCN(C(=O)c2cn3nc(-c4ccc(F)cc4)cc(C(F)(F)F)c3n2)C(C)(C)C1 [Compound I-36, 1-[4-[6-(4-Fluorophenyl)-8-(trifluoromethyl)imidazo[1,2-b]pyridazine-2-carbonyl]-3,3-dimethyl-piperazin-1-yl]-2-hydroxy-2-methyl-propan-1-one]	–	–	–	–	71	240	> 50000	> 50000	–
Cc1cc(C)n(CCC(=O)N2CCN(C(=O)c3cn4nc(-c5ccc(F)cc5)cc(C(C)C)c4n3)C[C@@H]2C)n1 [Compound I-134]	–	–	–	–	12	280	10000	7900	–
CC(C)(CC(=O)N1CCN(C(=O)c2cn3nc(-c4ccc(F)cc4)cc(C(C)(C)C)c3n2)C(C)(C)C1)C(=O)O [Compound I-561, 4-(4-(8-(tert-butyl)-6-(4-fluorophenyl)imidazo[1,2-b]pyridazine-2-carbonyl)-3,3-dimethylpiperazin-1-yl)-2,2-dimethyl-4-oxobutanoic acid]	–	–	–	–	–	–	–	–	IC50 ([1]; antagonist mode, 8 μM SLIGKV): 0.5 nM; IC50 [2, 9]: 0.7 nM; IC50 [3, 10]: > 1000 nM; IC50 ([4]; antagonist mode, 0.6 μM UTP): > 1000 nM
CC1(C)CN(C(=O)C2(O)CCOCC2)CCN1C(=O)c1cn2nc(-c3ccc(F)cc3)cc(C(F)(F)F)c2n1 [Compound I-38, [6-(4-Fluorophenyl)-8-(trifluoromethyl)imidazo[1,2-b]pyridazin-2-yl]-[4-(4-hydroxytetrahydropyran-4-carbonyl)-2,2-dimethyl-piperazin-1-yl]methanone]	–	–	–	–	390	480	> 50000	> 45000	–
CC(C)c1cc(-c2ccc(F)cc2)nn2cc(C(=O)N3CCN(C(=O)C(O)Cc4ccccc4)[C@@H](C)C3)nc12 (stereo partly shown) [Compound I-113]	–	–	–	–	0.8	3	8400	7200	–
CCC(=O)N1CCN(C(=O)c2cn3nc(-c4ccc(F)cc4)cc(C(F)(F)F)c3n2)CC1 [Compound I-59]	–	–	–	–	22000	2000	> 50000	> 50000	–
Cc1cc(-c2ccc(F)cc2)nn2cc(C(=O)N3CCN(C(=O)C4(O)CCC4)[C@@H](C)C3)nc12 [Compound I-159]	–	–	–	–	7300	17000	42000	36000	–
CC(C)c1cc(-c2ccc(F)cc2)nn2cc(C(=O)N3CCN(C(=O)C4(O)CCC4)C[C@H]3C)nc12 [Compound I-178]	–	–	–	–	4800	8300	43000	14000	–
CC(C)(C)c1cc(-c2ccc(F)cc2)nn2cc(C(=O)N3CCN(C(=O)c4ccno4)CC3(C)C)nc12 [Compound I-202]	0.6	0.9	> 1000	> 1000	–	–	–	–	–
CCNC(=O)OC1CCN(C(=O)c2cn3nc(-c4ccc(F)cc4)cc(C)c3n2)CC1 [Compound I-63]	–	–	–	–	1000	4100	35000	37000	–
CC(C)c1cc(-c2ccc(F)cc2)nn2cc(C(=O)N3CCN(C(=O)[C@@H](O)C(C)C)[C@@H](C)C3)nc12 [Compound I-110]	–	–	–	–	110	1500	19000	18000	–
